In ChEMBL document CHEMBL1255215, “Synthesis and selective anticancer activity of organochalcogen based redox catalysts” (J Med Chem, 2010):
The source made the active and inactive calls. The rule behind the calls is not given here.

Tests used:
[1] = test system: PBMC; test: Cytotoxicity against human PBMC; type: cell-based
[2] = test system: B-CLL; test: Cytotoxicity against human B-CLL cells assessed as reduction in cell viability; type: functional, cell-based
[3] = test system: B-CLL; test: Cytotoxicity against human B-CLL cells assessed as reduction in cell viability at 10 uM; type: functional, cell-based
[4] = Cytotoxicity against mouse NIH/3T3 cells at 1.25 uM; type: cell-based; details: nih3t3, 1.25 µM
[5] = test system: PBMC; test: Induction of intracellular ROS level in human PBMC cells by flow cytometry; type: functional, cell-based
[6] = Cytotoxicity against human B-CLL cells assessed as reduction in cell viability at 1 uM relative to untreated control; type: functional
[7] = test system: K562; test: Cytotoxicity against human K562 cells assessed as cell viability at 10 uM; type: functional; details: read-out: Activity
[8] = test system: A549; test: Cytotoxicity against human A549 cells at 0.3 uM; type: functional
[9] = test system: HUVEC; test: Cytotoxicity against HUVEC at 1.25 uM; type: cell-based; details: human
[10] = Cytotoxicity against human B-CLL cells assessed as reduction in cell viability at 500 nM relative to untreated control; type: functional
[11] = test system: MCF7; test: Cytotoxicity against human MCF7 cells at 0.3 uM; type: functional
[12] = test system: B-CLL; test: Induction of intracellular ROS level in human B-CLL cells by flow cytometry; type: functional, cell-based
[13] = test system: MCF7; test: Cytotoxicity against human MCF7 cells at 0.3 to 0.625 uM; type: functional
[14] = test system: HT-29; test: Cytotoxicity against human HT-29 cells at 0.3 to 0.625 uM; type: functional
[15] = test system: PBMC; test: Induction of apoptosis in human PBMC cells assessed as caspase3 activation by […]; type: functional, cell-based
[16] = test system: B-CLL; test: Induction of apoptosis in human B-CLL cells assessed as caspase3 activation by […]; type: functional, cell-based
[17] = test system: A549; test: Cytotoxicity against human A549 cells at 0.3 to 0.625 uM; type: functional

## O=C1C([Se]c2ccccc2)=C([Se]c2ccccc2)C(=O)c2ccccc21
[1]
  Activity: Non-toxic
[2]
  Activity: Active

## O=C1C(Sc2ccccc2)=C(Sc2ccccc2)C(=O)c2ccccc21
[3]
  Activity: Active
[2]
  Activity: Active

## CC1=C([Te]c2ccccc2)C(=O)c2ccccc2C1=O
[1]
  Activity: Non-toxic
[4]
  Activity: < 50%
[2]
  Activity: Active
[5]
  Activity: inactive
[6]
  Ratio: 5.03
[7]
  viability at 10 µM: 4.1%
[8]
  Activity: <50%
[9]
  Activity: < 50%
[10]
  Ratio: 3.17
[11]
  Activity: <50%
[12]
  Activity: Active

## CCOC(C[Se]C1=C([Se]CC(OCC)OCC)C(=O)c2ccccc2C1=O)OCC
[7]
  viability at 10 µM: 8.6%

## O=C1C([Se]c2ccccc2)=C([Se]c2ccccc2)C(=O)c2c(O)ccc(O)c21
[1]
  Activity: Toxic
[3]
  Activity: Active
[2]
  Activity: Active

## O=C1C([Te]c2ccccc2)=C([Te]c2ccccc2)C(=O)c2ccccc21
[1]
  Activity: Non-toxic
[13]
  Activity: <50%
[4]
  Activity: < 50%
[14]
  Activity: <50%
[2]
  Activity: Active
[5]
  Activity: inactive
[15]
  Activity: inactive
[7]
  viability at 10 µM: 15%
[16]
  Activity: Active
[9]
  Activity: < 50%
[17]
  Activity: <50%
[12]
  Activity: Active

## CC1=C([Te]c2ccc(O)cc2)C(=O)c2ccccc2C1=O
[2]
  Activity: inactive
[7]
  viability at 10 µM: 30%
